# Reference: patent publication US10251860B2, “Compounds for bone healing” (University of Pittsburgh—Of the Commonwealth System of …, priority 2015, dated 2019)
# Entries after “also recorded” stand apart in the source; their conditions may differ.
# Columns and labels:
# 32D cl 3 cells = test: Irradiated 32D cl 3 cells, cell count and viability; assay type: cell-based, murine; settings: 10 μM, 0-7 Gy, day 3 or 5 after irradiation
# Experimental: FIGS. 10A-10D provide data from a screening experiment where 32D cl 3 cells were irradiated to doses of 0, 1, 3, 5, or 7 Gy and placed in T25 flasks. Either JP4-039 or MM350 were added at 10 μM and incubated in a CO2 incubator at 37° C. At Day 3 or 5 after irradiation, the cells were counted and the viability determined.
# mice = test: Dose escalation experiments in mice; assay type: in vivo, mouse
# Excerpt: In particular, certain embodiments of the oxetane-substituted compounds (e.g., MMS350) are radiation protector/mitigators that are water soluble, and easily administered (e.g., orally administered to a subject). […] Furthermore, MnSOD-PL is relatively ineffective when delivered weeks-months after irradiation, at the time that fibrosis is forming, and appears to be only effective when delivered prior to irradiation. In contrast, MMS350 as shown in the data reported herein, has high effectiveness when delivered months after irradiation and at the time of initiation of radiation fibrosis in the lung.
# PKD1 = molecular target: T1, PKD1 (Homo sapiens, UniProt Q15139); test: Radiometric PKD1 inhibition assay; assay type: biochemical; settings: stock solutions in 25% 3/NMP
# T1 sequence (Q15139 1-912): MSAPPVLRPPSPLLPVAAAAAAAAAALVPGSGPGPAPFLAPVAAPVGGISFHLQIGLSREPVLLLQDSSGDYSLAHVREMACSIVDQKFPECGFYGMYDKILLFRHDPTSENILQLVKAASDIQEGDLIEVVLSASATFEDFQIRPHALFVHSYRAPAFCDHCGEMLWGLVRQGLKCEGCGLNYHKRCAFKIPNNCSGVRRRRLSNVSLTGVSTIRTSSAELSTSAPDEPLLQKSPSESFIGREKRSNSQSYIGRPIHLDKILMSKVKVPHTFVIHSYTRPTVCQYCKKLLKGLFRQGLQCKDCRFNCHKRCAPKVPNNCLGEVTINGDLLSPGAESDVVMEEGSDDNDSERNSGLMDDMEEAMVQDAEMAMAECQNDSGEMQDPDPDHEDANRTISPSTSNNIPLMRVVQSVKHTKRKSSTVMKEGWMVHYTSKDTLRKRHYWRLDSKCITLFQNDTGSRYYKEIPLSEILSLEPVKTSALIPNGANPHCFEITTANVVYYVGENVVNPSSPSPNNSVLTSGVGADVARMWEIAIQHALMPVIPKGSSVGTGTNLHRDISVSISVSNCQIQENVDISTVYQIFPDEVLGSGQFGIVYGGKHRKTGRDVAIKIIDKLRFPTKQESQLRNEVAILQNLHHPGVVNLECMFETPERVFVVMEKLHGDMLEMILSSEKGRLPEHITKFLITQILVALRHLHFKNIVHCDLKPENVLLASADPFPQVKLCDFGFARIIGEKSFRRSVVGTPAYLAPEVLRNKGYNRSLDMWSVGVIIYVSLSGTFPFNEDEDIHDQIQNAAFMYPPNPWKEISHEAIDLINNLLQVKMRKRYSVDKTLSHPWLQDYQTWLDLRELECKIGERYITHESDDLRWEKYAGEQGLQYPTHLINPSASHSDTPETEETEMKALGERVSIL
# Excerpt: Recently, a series of compounds with nanomolar to micromolar inhibitory activity against the serine/threonine protein kinase D (PKD) isoform PKD1 was disclosed (FIG. 7). Several lead structures, especially those containing a pyrimidine moiety, suffered from poor solubility not only in aqueous media but also in DMSO. To test the feasibility of using sulfoxide 3 as a cosolvent for in vitro assays, its use in the radiometric PKD1 inhibition assay was examined. Inhibitory activity at two concentrations (1 μM and 10 μM) was measured using compound stock solutions in three formulations: DMSO, NMP, and 25% 3/NMP (FIGS. 8 and 9).
# [1] = Compound storage in 25% w/w solutions of 3 and NMP; assay type: physicochemical; settings: 25% w/w 3 in NMP, −20° C.
# Experimental: Because sulfoxide 3 is a solid, it would have to be mixed with an appropriate water-soluble cosolvent to act as a compound storage additive. NMP was chosen for exploring this potential application due to its thermal stability and low toxicity. […] The compound test set (FIG. 2) was stored in 25% w/w solutions of 3 and NMP for 6 weeks at −20° C.
# [2] = test system: luc+ bone marrow stromal cells migrating to lungs; test: Live imaging of luc+ marrow cell migration to irradiated lungs; assay type: in vivo, mouse; settings: MMS350 in drinking water
# Experimental: C57BL/6NTac mice marrow chimeric luc+ mice were prepared by 9.25 Gy TBI, followed by an injection of 1×10^7 luc+ marrow cells 24 hours later. Subgroups of these chimeric mice were irradiated to 20 Gy to the pulmonary cavity. On day 75 following thoracic irradiation, 50% of the mice were placed on drinking water containing 100 mM MMS350. Mice in the non-chimeric group were injected intraperitoneally on day 100 after irradiation with 1×10^6 luc+ bone marrow stromal cells. Beginning 12 days after cell line injection (112 days after irradiation), the cell line injected mice were imaged at serial timepoints following injection of D-luciferin (Gold Biotechnology, St. Louis, Mo.) using a Xenogen IVIS 200 Imaging system and the bioluminescent signal for each mouse quantitated. As controls for thoracic irradiation, other C57BL/6NTac mice were irradiated to 20 Gy to the right hind limb and injected with luc+ bone marrow stromal cells in the same cell numbers and at the same time points used for the thoracic irradiation experiment. Animals were imaged for luc+ cell migration into irradiated hind limbs using methods identical to that used for pulmonary irradiation groups. The bioluminescence of the mice treated with MMS350 in the drinking water was compared to mice on regular drinking water using a Student T test. […]
smiles,measurement,setting,value
"CC1(C[S+]([O-])CC2(C)COC2)COC1 [Compound 3, 3,3′-Sulfinylbis(methylene)bis(3-methyloxetane)]",number of cells and viability,32D cl 3 cells,comparable to JP4-039
same,toxic dose,mice,a toxic dose has not yet been reached
same,interference with PKD1 inhibition assay,PKD1,did not interfere with the standard PKD1 inhibition assay
same,precipitation on storage,[1],partly precipitated from the solution
same,pulmonary migration of luc+ bone marrow stromal cells,"[2]; 20 Gy thoracic irradiation, luc+ stromal cell line injected intraperitoneally",significant decrease in migration into the lungs of luc+ cells; also recorded: significant decrease in pulmonary migration of luc+ bone marrow stromal cells
same,migration of luc+ bone marrow cells into the lungs,"[2]; luc+ marrow chimeric mice, 18 or 20 Gy thoracic irradiation, listed as MMS350",significantly reduces migration of bone marrow cells into the lungs; also recorded: reduction of luc+ areas in the thoracic cavity
